According to patent publication US20140255968A1, “METHOD FOR FABRICATING A PATTERNED SUBSTRATE FOR A CELL CULTURE, A PATTERNED SUBSTRATE FOR CELL CULTURE, AND A CELL CHIP” (RESEARCH & BUSINESS FOUNDATION SUNGKYUNKWAN UNIVERSITY, priority 2013, published 2014):
“Also recorded” adds a separate entry of the source. Like-named read-outs stand apart in the source and are kept apart here.

Test system: bovine aortic endothelial cells (BAECs)
Test: Angiogenesis assay on patterned cell chip
Format: cell-based
Description: In an angiogenesis assay using the fabricated substrate, bovine aortic endothelial cells (BAECs) were used. To prevent contamination, the substrate fabricated in Example 1-2 was placed in a Petri dish and irradiated with UV light for 16 hours prior to the test. BAEC cells were seeded in 2 ml of complete medium (low glucose DMEM (Dulbecco's Modified Eagle's Medium, WELGENE) containing 1× penicillin/streptomycine (WELGENE) and 20% fetal bovine serum (FBS, WELGENE)) at a cell concentration of 2.5×10^5 cells/ml, and then cultured in a 5% CO2 incubator at 37° C. for 6 hours. Next, the complete medium was replaced with the following media. • untreated plate (normal control group): 10 ml of low-glucose DMEM containing 1× penicillin/streptomycin and 0.2% FBS; • LPS (lipopolysaccharide)-treated plate (negative control group): 10 ml of low-glucose DMEM containing 1× penicillin/streptomycin, 0.2% FBS and 100 ng/ml of LPS; or • VEGF (vascular endothelial growth factor)-treated plate (positive control group): 10 ml of low-glucose DMEM containing 1× penicillin/streptomycin, 0.2% FBS and 100 ng/ml of VEGF. To prevent cells on the substrate from being dried due to evaporation of the media in the incubator, the volume of the media was increased to 10 ml, and to more accurately confirm the effect of the positive control group (VEGF-treated plate), starvation basic medium having a decreased FBS (a kind of growth factor) concentration of 0.2% was used.

[1] = 100 ng/ml in low-glucose DMEM with 0.2% FBS, 18 hours, optical microscope

With “vascular endothelial growth factor [VEGF]” the “angiogenesis on the patterned cell chip compared with the untreated case” value was “angiogenesis was induced and promoted”, the “formation of tube-shaped blood vessels” value [1] was “tube-shaped blood vessels were newly formed” and the “number of cells in the regions between cell adsorbing H2/He plasma treated areas, compared with untreated” value [1] was “proliferation of cells significantly increased; also recorded: significantly larger number of the cells”.

lipopolysaccharide [LPS] was tested, and the “angiogenesis on the patterned cell chip compared with the untreated case” value [1] was “angiogenesis was inhibited” and the “number of cells in the regions between cell adsorbing H2/He plasma treated areas, compared with untreated” value [1] was “significant decrease in the number of cells; also recorded: smaller number of cells”.
